Experimental findings from US10982174B2, “Synergistic surfactant blends” (STEPAN COMPANY, priority 2012, dated 2021) are described below.

Common to all, as to assay type: physicochemical
Data set [1] can be described thus: Critical micelle concentration (CMC) and beta parameter (synergy). As to the method:
Synergy can also be evaluated with respect to a blend's beta parameter (β), which can be calculated from the measured critical micelle concentration. Suitable methods for calculating β have been described previously (see, e.g., U.S. Pat. No. 5,360,571, the teachings of which are incorporated herein by reference).
Conveniently, the critical micelle concentration of a blend is measured at dilute concentrations in deionized water with pH adjusted to be within the range of 6 to 7. Critical micelle concentration generally refers to the minimum concentration of surfactant (in mg/L) needed to support micelle formation. The measurement can be performed, for instance, using a Krüss K12 tensiometer at 25° C. Once the critical micelle concentration is measured, the value of β can be found from:
where X is the total mole fraction of Surfactant 1 in the mixed micelles; α is the mole fraction of Surfactant 1 in solution; C1, C2, and C12 are the critical micelle concentrations of Surfactant 1, Surfactant 2, and their mixture; and β is the interaction parameter.
A negative value of β indicates synergy, while a positive value of β indicates antagonism, and values close to zero indicate little or no synergy.
The critical micelle concentration (CMC) of a blend is measured at a diluted concentration in deionized water with pH adjusted to 6-7. The measurement is done at 25° C. using a Kruss K100 tensiometer. The synergy of the blends, indicated by the beta parameter, is calculated based on the CMC data using the equation, β=[In(αA12/XA1)]/(1−X)^2 in which α is the mole fraction of the anionic surfactant in solution, X is the mole fraction of the anionic surfactant in mixed micelles, A1 is the critical micelle concentration of the anionic surfactant, and A12 is the critical micelle concentration of the blend.

Data set [2] in a line: Appearance / solubility of surfactant blends, neat and diluted with deionized water. The conditions noted are these: SLS/Quat (molar) 0:1. As to the method: All of the surfactant blends tested are prepared at the designated molar ratios without any pH adjustment. Dilutions are made using deionized water to the desired actives level. Actives amounts are wt. % unless indicated otherwise. Appearances are reported at ambient temperature for samples prepared within the last 24 h.

Data set [3] in a line: Interfacial tension (IFT), pendant drop tensiometer, against light mineral oil. The conditions noted are these: individual surfactant, ambient temperature, in mN/m (unit assumed). As to the method:
Interfacial tension is measured by any suitable method. […] The expected IFT value for a blend is calculated based on ideal mixing (non-synergistic) using the active component in each blend. The equation used is: Expected IFT=X·IFTA+(1−X)·IFTB where X is the actives % of Component A, IFTA is the IFT of Component A, and IFTB is the IFT of Component B.
If the measured IFT for a blend is less than the expected IFT, the blend is synergistic; if the measured IFT for a blend is greater than the expected IFT, the blend is antagonistic.
Interfacial tension (IFT) of all the individual components and their blends is measured at a given % active against light mineral oil at ambient temperature using a Kruss DSA-20 pendent drop tensiometer.

The mark [4] stands for this setting: deionized water, pH 6-7, 25° C.

For the molecule `C=CCCCCCCCC(=O)OCC[N+](C)(C)C` [C10-7, C10 DMEA Ester Quat], the “Surface tension at CMC (mN/m)” value in data set [1] worked out at 41.1 mN/m. In data set [1] (setting [4]), the “CMC (mg/L)” value was 342.6 mg/L and the “CMC (mol/L)” value is 0.000932 mol/L.
With `C=CCCCCCCCC(=O)NCCC[N+](C)(C)C` [C10-18, C10 DMAPA Quat], in data set [2], the “Appearance 0.01% actives” value is “clear”, the “Appearance 0.2% actives” value was “clear” and the Appearance concentrate entry is “solid”.
Take `C=CCCCCCCCC(=O)OC(CCCCCCCC(=O)[O-])CS(=O)(=O)[O-].[Na+].[Na+]` (centres unmarked) [C10-32, C10 UFA SLA]: in data set [3], the “IFT (0.1% actives)” value is on record as 25.9.
On the same count and under the same terms, the same measure for `C=CCCCCCCCC[N+](C)(C)C` [C10-42, C10 Amine DMS Quat]: 42.0.
On to `CC/C=C/CCCCCCCC(=O)NCCC[N+](C)(C)C` [C12-18], for which, in data set [2], the “Appearance 0.01% actives” value is given as “clear”, the “Appearance 0.2% actives” value was “clear” and the Appearance concentrate entry is reported as “solid”.
